Experiments:
[1] = Ibrutinib and SMT-conjugate pharmacokinetics in human subjects (plasma of patients A and B); settings: for Concentration: omitted (no group)
Description: (§1) For analysis, 200 μL acetonitrile containing the internal standards was added to 100 μL sample. After mixing and centrifuging, 200 μL supernatant was transferred, and thereafter the solvent was partially evaporated. Before the samples were analyzed by ultra-high-performance liquid chromatography with mass spectrometer detection [21], 100 μL of mobile phase (water:acetonitrile:formic acid, 90:10:0.1 (v:v:v)) was added.
(§2) When no time was available at all, the sample was omitted. […] Pharmacokinetic (PK) data was analyzed using the PKNCA package (version 0.8.1) [22] for the statistical software R (version 3.4.2) [23] and RStudio (version 1.1.383) [24].

ciPTEC [2] = format: cell-based; settings: 2 μM ibrutinib with efflux transporter inhibitors, 48 h
Description: Cytotoxicity was evaluated using a Presto-blue assay as follows: cells were incubated for 1 h with Presto-blue solution (100 μL/well) at 37 °C and […] read using a Jasco FP8300 fluorometer (Tokyo, Japan; excitation wavelength: 560 nm, emission wavelength: 590 nm).

clinical [3] = settings: human, in vivo
Description: as §1, §2

ciPTEC [4] = settings: ciPTEC, after 48 h
Description: Medium and cell lysate samples were taken at 1, 2, 3 and 4 h. Each time point was measured in duplicate. Preincubation (t0) analyte concentrations in medium were also analyzed.

clinical [5] = settings: male, human, in vivo, 140 mg
Description: as §1
Time-concentration data of three patients were analyzed. […] When no time was available at all, the sample was omitted. […] Pharmacokinetic (PK) data was analyzed using the PKNCA package (version 0.8.1) [22] for the statistical software R (version 3.4.2) [23] and RStudio (version 1.1.383) [24].

[6] = human, in vivo
Description: as §1, §2

With `C=CC(=O)N1CCC[C@@H](n2nc(-c3ccc(Oc4ccccc4)cc3)c3c(N)ncnc32)C1` [Ibrutinib, reference compound] the concentration at 1.4 h ([1]; human, in vivo, 420 mg, Concentration, patient A, sample ID 2, T 1.4 h, 1xdd 420mg, group abs) was 6.6 nM, the concentration at 0.5 h ([1]; human, in vivo, 420 mg, Concentration, patient A, sample ID 5, T 0.5 h, 1xdd 420mg, group abs) was 11.8 nM and the concentration at 0.8 h ([1]; human, in vivo, 420 mg, Concentration, patient A, sample ID 6, T 0.8 h, 1xdd 420mg, group abs) was 14.6 nM. It also gave a concentration at 22.7 h ([1]; human, in vivo, 420 mg, Concentration, patient A, sample ID 8, T 22.7 h, 1xdd 420mg, group trough) of 8.9 nM, a concentration at 22.2 h ([1]; human, in vivo, 420 mg, Concentration, patient A, sample ID 10, T 22.2 h, 1xdd 420mg, group trough) of 7 nM and a concentration at 22.6 h ([1]; human, in vivo, 420 mg, Concentration, patient A, sample ID 11, T 22.6 h, 1xdd 420mg, group trough) of 4.3 nM. For the same compound, the concentration at 2.5 h ([1]; human, in vivo, 420 mg, Concentration, patient A, sample ID 13, T 2.5 h, 1xdd 420mg, group max) was 683 nM, the concentration at 3.8 h ([1]; human, in vivo, 420 mg, Concentration, patient A, sample ID 14, T 3.8 h, 1xdd 420mg, group max) was 151 nM and the concentration at 23.3 h ([1]; human, in vivo, 420 mg, Concentration, patient A, sample ID 19, T 23.3 h, 1xdd 420mg, group trough) was 5.5 nM. It also gave a concentration at 0.8 h ([1]; human, in vivo, 420 mg, Concentration, patient A, sample ID 21, T 0.8 h, 1xdd 420mg, group abs) of 143 nM, a concentration at 0.8 h ([1]; human, in vivo, 560 mg, Concentration, patient A, sample ID 3, T 0.8 h, 1xdd 560mg, group abs) of 3.5 nM and a concentration at 2.8 h ([1]; human, in vivo, 560 mg, Concentration, patient B, sample ID 4, T 2.8 h, 1xdd 560mg, group max) of 234 nM. For the same compound, the concentration at 4.1 h ([1]; human, in vivo, 560 mg, Concentration, patient B, sample ID 7, T 4.1 h, 1xdd 560mg, group max) was 360 nM, the concentration at 4.4 h ([1]; human, in vivo, 560 mg, Concentration, patient B, sample ID 9, T 4.4 h, 1xdd 560mg, group max) was 192 nM and the concentration at 2.4 h ([1]; human, in vivo, 560 mg, Concentration, patient B, sample ID 12, T 2.4 h, 1xdd 560mg, group max) was 551 nM. It also gave a concentration at 3.9 h ([1]; human, in vivo, 560 mg, Concentration, patient B, sample ID 17, T 3.9 h, 1xdd 560mg, group max) of 578 nM, a concentration at 3.8 h ([1]; human, in vivo, 560 mg, Concentration, patient B, sample ID 20, T 3.8 h, 1xdd 560mg, group max) of 196 nM and a concentration at 4.1 h ([1]; human, in vivo, 560 mg, Concentration, patient B, sample ID 23, T 4.1 h, 1xdd 560mg, group max) of 497 nM. For the same compound, the concentration at 4.4 h ([1]; human, in vivo, 560 mg, Concentration, patient B, sample ID 24, T 4.4 h, 1xdd 560mg, group max) was 323 nM, the Concentration ([1]; patient A, sample ID 15, T NA, 1xdd 420mg) was 15.8 nM and the Concentration ([1]; patient A, sample ID 22, T NA, 1xdd 420mg) was 0.9 nM. For the same compound, the cell death (ciPTEC [2]) was “up to 50%”, the Tmax (clinical [3]) was 2.6 h and the ibrutinib metabolized (ciPTEC [4]) was “ca. 98%”. For the same compound, the AUC(0-t) (clinical [5]) was 0.325 µM·h, the Cmax [6] was 370 ± 180 (151–683) nM and the Ctrough [6] was 6.4 ± 2 (4.3–8.9) nM.
